The supplement of paper PMC10307832

What was measured:
Experiment in all cases: relative viability (nuclei count vs DMSO), 5 days (fraction); higher = more cells survive
NCI-H2023 = system: NCI-H2023
How it was run: (§1)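 After 5 days of treatment, lung cancer cells in 1536-well plates were fixed and stained in a single step (final 0.05% Triton X-100, 1% formaldehyde, 1 ug/ml Hoechst) and their nuclei counted on 4× images. Treatment had been applied by pin tool the day after seeding as one drug alone or as a fixed anchor-drug dose with five library-drug doses (not always all listed) in √10 steps. Relative viability is the nuclei count of treated wells divided by that of vehicle wells, and values are medians of duplicate plates.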

COR-L23 = system: COR-L23
How it was run: as §1

A-427 = system: A-427
How it was run: as §1

SK-MES-1 = system: SK-MES-1
How it was run: as §1

NCI-H1651 = system: NCI-H1651
How it was run: as §1

NCI-H1395 = system: NCI-H1395
How it was run: as §1

NCI-H2342 = system: NCI-H2342
How it was run: as §1

COR-L 105 = system: COR-L 105
How it was run: as §1

LCLC-103H = system: LCLC-103H
How it was run: as §1

NCI-H650 = system: NCI-H650
How it was run: as §1

CAL-12T = system: CAL-12T
How it was run: as §1

NCI-H2085 = system: NCI-H2085
How it was run: as §1

HOP-62 = system: HOP-62
How it was run: as §1

LXF-289 = system: LXF-289
How it was run: as §1

NCI-H2170 = system: NCI-H2170
How it was run: as §1

NCI-H1975 = system: NCI-H1975
How it was run: as §1

NCI-H596 = system: NCI-H596
How it was run: as §1

RERF-LC-KJ = system: RERF-LC-KJ
How it was run: as §1

NCI-H3122 = system: NCI-H3122
How it was run: as §1

NCI-H647 = system: NCI-H647
How it was run: as §1

NCI-H2087 = system: NCI-H2087
How it was run: as §1

`COCC1(CO)C(=O)C2CCN1CC2` (configuration not stated) [PRIMA-1MET] + O=C(c1cc(Cc2n[nH]c(=O)c3ccccc23)ccc1F)N1CCN(C(=O)C2CC2)CC1 [Olaparib] (partner 8 µM) showed a relative viability (NCI-H2023; first compound 0.2 µM) of 0.576, a relative viability (NCI-H2023; first compound 0.6325 µM) of 0.478 and a relative viability (NCI-H2023; first compound 2 µM) of 0.489. It also gave a relative viability (NCI-H2023; first compound 6.325 µM) of 0.442, a relative viability (NCI-H2023; first compound 20 µM) of 0.29 and a relative viability (COR-L23; first compound 0.2 µM) of 0.38. For the same compound, the relative viability (COR-L23; first compound 0.6325 µM) was 0.315, the relative viability (COR-L23; first compound 2 µM) was 0.379 and the relative viability (COR-L23; first compound 6.325 µM) was 0.315. For the same compound, the relative viability (COR-L23; first compound 20 µM) was 0.106, the relative viability (A-427; first compound 0.2 µM) was 0.918 and the relative viability (A-427; first compound 0.6325 µM) was 0.607. It also gave a relative viability (A-427; first compound 2 µM) of 0.746, a relative viability (A-427; first compound 6.325 µM) of 0.765 and a relative viability (A-427; first compound 20 µM) of 0.687. The relative viability (SK-MES-1; first compound 0.2 µM) was 0.852, the relative viability (SK-MES-1; first compound 0.6325 µM) was 0.66 and the relative viability (SK-MES-1; first compound 2 µM) was 0.779. The relative viability (SK-MES-1; first compound 6.325 µM) was 0.622, the relative viability (SK-MES-1; first compound 20 µM) was 0.622 and the relative viability (NCI-H1651; first compound 0.2 µM) was 0.226. For the same compound, the relative viability (NCI-H1651; first compound 0.6325 µM) was 0.158, the relative viability (NCI-H1651; first compound 2 µM) was 0.179 and the relative viability (NCI-H1651; first compound 6.325 µM) was 0.202. It also gave a relative viability (NCI-H1651; first compound 20 µM) of 0.184, a relative viability (NCI-H1395; first compound 0.2 µM) of 0.51 and a relative viability (NCI-H1395; first compound 2 µM) of 0.476. The relative viability (NCI-H1395; first compound 6.325 µM) was 0.432, the relative viability (NCI-H1395; first compound 20 µM) was 0.426 and the relative viability (NCI-H2342; first compound 0.2 µM) was 0.414. The relative viability (NCI-H2342; first compound 0.6325 µM) was 0.432, the relative viability (NCI-H2342; first compound 6.325 µM) was 0.395 and the relative viability (NCI-H2342; first compound 20 µM) was 0.337. For the same compound, the relative viability (COR-L 105; first compound 0.2 µM) was 0.687, the relative viability (COR-L 105; first compound 0.6325 µM) was 0.685 and the relative viability (COR-L 105; first compound 2 µM) was 0.713. For the same compound, the relative viability (COR-L 105; first compound 6.325 µM) was 0.688, the relative viability (COR-L 105; first compound 20 µM) was 0.458 and the relative viability (LCLC-103H; first compound 0.2 µM) was 0.841. The relative viability (LCLC-103H; first compound 0.6325 µM) was 0.717, the relative viability (LCLC-103H; first compound 2 µM) was 0.711 and the relative viability (LCLC-103H; first compound 6.325 µM) was 0.8. For the same compound, the relative viability (LCLC-103H; first compound 20 µM) was 0.703, the relative viability (NCI-H650; first compound 0.2 µM) was 0.492 and the relative viability (NCI-H650; first compound 0.6325 µM) was 0.453. It also gave a relative viability (NCI-H650; first compound 2 µM) of 0.339, a relative viability (NCI-H650; first compound 6.325 µM) of 0.368 and a relative viability (NCI-H650; first compound 20 µM) of 0.187. It also gave a relative viability (CAL-12T; first compound 0.2 µM) of 0.806, a relative viability (CAL-12T; first compound 0.6325 µM) of 0.747 and a relative viability (CAL-12T; first compound 2 µM) of 0.639. For the same compound, the relative viability (CAL-12T; first compound 6.325 µM) was 0.445, the relative viability (CAL-12T; first compound 20 µM) was 0.696 and the relative viability (NCI-H2085; first compound 0.2 µM) was 0.837. For the same compound, the relative viability (NCI-H2085; first compound 0.6325 µM) was 0.817, the relative viability (NCI-H2085; first compound 2 µM) was 0.805 and the relative viability (NCI-H2085; first compound 6.325 µM) was 0.862. The relative viability (NCI-H2085; first compound 20 µM) was 0.191, the relative viability (HOP-62; first compound 0.2 µM) was 0.489 and the relative viability (HOP-62; first compound 0.6325 µM) was 0.388. It also gave a relative viability (HOP-62; first compound 2 µM) of 0.51, a relative viability (HOP-62; first compound 6.325 µM) of 0.428 and a relative viability (HOP-62; first compound 20 µM) of 0.0328. The relative viability (LXF-289; first compound 0.2 µM) was 1.14, the relative viability (LXF-289; first compound 0.6325 µM) was 1.03 and the relative viability (LXF-289; first compound 2 µM) was 1.06. The relative viability (LXF-289; first compound 6.325 µM) was 1.06, the relative viability (LXF-289; first compound 20 µM) was 0.999 and the relative viability (NCI-H2170; first compound 0.2 µM) was 0.608. It also gave a relative viability (NCI-H2170; first compound 0.6325 µM) of 0.539, a relative viability (NCI-H2170; first compound 2 µM) of 0.649 and a relative viability (NCI-H2170; first compound 6.325 µM) of 0.684. It also gave a relative viability (NCI-H2170; first compound 20 µM) of 0.622, a relative viability (NCI-H1975; first compound 0.2 µM) of 1.01 and a relative viability (NCI-H1975; first compound 0.6325 µM) of 0.699. It also gave a relative viability (NCI-H1975; first compound 2 µM) of 0.775, a relative viability (NCI-H1975; first compound 6.325 µM) of 0.847 and a relative viability (NCI-H1975; first compound 20 µM) of 0.616. It also gave a relative viability (NCI-H596; first compound 0.2 µM) of 0.718, a relative viability (NCI-H596; first compound 0.6325 µM) of 0.652 and a relative viability (NCI-H596; first compound 2 µM) of 0.6. The relative viability (NCI-H596; first compound 6.325 µM) was 0.735, the relative viability (NCI-H596; first compound 20 µM) was 0.238 and the relative viability (RERF-LC-KJ; first compound 0.2 µM) was 0.969. For the same compound, the relative viability (RERF-LC-KJ; first compound 0.6325 µM) was 0.988, the relative viability (RERF-LC-KJ; first compound 2 µM) was 0.977 and the relative viability (RERF-LC-KJ; first compound 6.325 µM) was 1.09. For the same compound, the relative viability (RERF-LC-KJ; first compound 20 µM) was 0.922, the relative viability (NCI-H3122; first compound 0.2 µM) was 0.661 and the relative viability (NCI-H3122; first compound 0.6325 µM) was 0.55. It also gave a relative viability (NCI-H3122; first compound 2 µM) of 0.614, a relative viability (NCI-H3122; first compound 6.325 µM) of 0.698 and a relative viability (NCI-H3122; first compound 20 µM) of 0.621. It also gave a relative viability (NCI-H647; first compound 0.2 µM) of 0.461, a relative viability (NCI-H647; first compound 0.6325 µM) of 0.614 and a relative viability (NCI-H647; first compound 2 µM) of 0.722. It also gave a relative viability (NCI-H647; first compound 6.325 µM) of 0.607, a relative viability (NCI-H647; first compound 20 µM) of 0.593 and a relative viability (NCI-H2087; first compound 0.6325 µM) of 0.589. For the same compound, the relative viability (NCI-H2087; first compound 2 µM) was 0.749, the relative viability (NCI-H2087; first compound 6.325 µM) was 0.649 and the relative viability (NCI-H2087; first compound 20 µM) was 0.241.
